Experimental data published in US11572399B2, “Long-acting GIP peptide analogues” (University of Copenhagen, priority 2017, dated 2023).
Peptide text beside a SMILES is read from it. * marks the point of attachment. C16 diacid = O=C(O)CCCCCCCCCCCCCCC(=O)*; Lauroyl = CCCCCCCCCCCC(=O)*

Biological target: T1, human GIP receptor (Homo sapiens, UniProt P48546)
T1 construct: host or cells: COS-7, transient transfection (calcium phosphate), cDNA in pCMV-Script
T1 sequence (P48546 22-466): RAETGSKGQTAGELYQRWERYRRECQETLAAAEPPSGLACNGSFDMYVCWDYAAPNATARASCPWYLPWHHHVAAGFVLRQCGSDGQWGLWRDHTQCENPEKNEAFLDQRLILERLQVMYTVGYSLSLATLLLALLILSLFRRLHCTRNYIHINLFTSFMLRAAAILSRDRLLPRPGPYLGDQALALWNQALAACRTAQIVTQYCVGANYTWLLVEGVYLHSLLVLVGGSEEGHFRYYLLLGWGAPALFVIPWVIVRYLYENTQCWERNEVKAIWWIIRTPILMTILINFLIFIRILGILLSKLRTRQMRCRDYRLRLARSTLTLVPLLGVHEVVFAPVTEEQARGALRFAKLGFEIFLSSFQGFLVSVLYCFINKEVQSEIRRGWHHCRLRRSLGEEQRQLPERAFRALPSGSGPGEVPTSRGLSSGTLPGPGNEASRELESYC
Test: cAMP accumulation assay, agonism (ligand alone)
Type: cell-based
Details: COS-7 cells, Table 1; for Emax: COS-7, intrinsic cAMP activity; for EC50: read-out: cAMP agonism nM (EC50)
Description: COS-7 cells were cultured at 10% CO2 and 37° C. in Dulbecco's modified Eagle's medium 1885 supplemented with 10% fetal bovine serum, 2 mM glutamine, 180 units/ml penicillin, and 45 µg/ml streptomycin. Transient transfection of the COS-7 cells for cAMP accumulation and competition binding was performed using the calcium phosphate precipitation method with the addition of chloroquine^46-47.
Transient transfected COS-7 cells expressing the human GIP receptor were seeded in white 96-well plates with a density of 3.5*10^4/well. The day after, the cells were washed twice with Hepes buffered saline (HBS) buffer and incubated with HBS and 1 mM 3-isobutyl-1-methylxanthine (IBMX) for 30 min at 37° C. To test for agonistic properties, ligands were added and incubated for 30 min at 37° C. In order to test for antagonistic properties, the cells were preincubated with the antagonists for 10 min prior to the addition of the agonist and subsequent incubated for 20 additional min. The HitHunter™ cAMP XS assay (DiscoveRx) was carried out according to the manufacturer's instructions.
IC50, EC50, and Ki values were determined by nonlinear regression. These were carried out with the GraphPad Prism 6.0 software (GraphPad, San Diego, Calif., USA) and Microsoft Excel™. Ki values were based on the formula for one class of binding sites in homologous competition binding studies and the Cheng Prussoffs formula, respectively (DeBlasi et al., 1989). To determine the HSA binding potential, the fold change in affinity (as determined by IC50) was calculated as IC50 (plus HSA)/IC50 (minus HSA).

Compound	Emax [%]	EC50 [nM]	cAMP agonism Emax (intrinsic cAMP activity)
CC[C@H](C)[C@H](NC(=O)[C@H](CO)NC(=O)[C@H](Cc1ccc(O)cc1)NC(=O)[C@H](CC(=O)O)NC(=O)[C@H](CO)NC(=O)[C@@H](NC(=O)[C@H](Cc1ccccc1)NC(=O)[C@@H](NC(=O)CNC(=O)[C@H](CCC(=O)O)NC(=O)CCCCCCCCCCC(=O)O)[C@@H](C)O)[C@@H](C)CC)C(=O)N[C@@H](C)C(=O)N[C@@H](CCSC)C(=O)N[C@@H](CC(=O)O)C(=O)N[C@@H](CCCCN)C(=O)N[C@H](C(=O)N[C@@H](CCCNC(=N)N)C(=O)N[C@@H](CCC(N)=O)C(=O)N[C@@H](CCC(N)=O)C(=O)N[C@@H](CC(=O)O)C(=O)N[C@@H](Cc1ccccc1)C(=O)N[C@H](C(=O)N[C@@H](CC(N)=O)C(=O)N[C@@H](Cc1c[nH]c2ccccc12)C(=O)N[C@@H](CC(C)C)C(=O)N[C@@H](CC(C)C)C(=O)N[C@@H](C)C(=O)N[C@@H](CCC(N)=O)C(=O)N[C@@H](CCCNC(=N)N)C(N)=O)C(C)C)[C@@H](C)CC [AT149, [hGIP(3-30)NH2[H18R; K30R]-C12diacid/3]]	50	24	–
CCCCCCCCCCCC(=O)NCCCC[C@H](NC(=O)[C@H](CCC(N)=O)NC(=O)[C@H](C)NC(=O)[C@H](CC(C)C)NC(=O)[C@H](CC(C)C)NC(=O)[C@H](Cc1c[nH]c2ccccc12)NC(=O)[C@H](CC(N)=O)NC(=O)[C@@H](NC(=O)[C@H](Cc1ccccc1)NC(=O)[C@H](CC(=O)O)NC(=O)[C@H](CCC(N)=O)NC(=O)[C@H](CCC(N)=O)NC(=O)[C@H](C)NC(=O)[C@@H](NC(=O)[C@H](CCCCN)NC(=O)[C@H](CCC(=O)O)NC(=O)[C@H](CCSC)NC(=O)[C@H](C)NC(=O)[C@@H](NC(=O)[C@H](CO)NC(=O)[C@H](Cc1ccc(O)cc1)NC(=O)[C@H](CC(=O)O)NC(=O)[C@H](CO)NC(=O)[C@@H](NC(=O)[C@H](Cc1ccccc1)NC(=O)[C@@H](NC(=O)CNC(=O)[C@@H](N)CCC(=O)O)[C@@H](C)O)[C@@H](C)CC)[C@@H](C)CC)[C@@H](C)CC)C(C)C)C(N)=O [AT130, [hGIP(3-30)NH2[D15E; H18A]-C12/30]] (H-EGTFISDYSIAMEKIAQQDFVNWLLAQK(Lauroyl)-NH2; N-terminus assumed)	49	–	–
CC[C@H](C)[C@H](NC(=O)[C@H](CO)NC(=O)[C@H](Cc1ccc(O)cc1)NC(=O)[C@H](CC(=O)O)NC(=O)[C@H](CO)NC(=O)[C@@H](NC(=O)[C@H](Cc1ccccc1)NC(=O)[C@@H](NC(=O)CNC(=O)[C@@H](N)CCC(=O)O)[C@@H](C)O)[C@@H](C)CC)C(=O)N[C@@H](C)C(=O)N[C@@H](CCSC)C(=O)N[C@@H](CC(=O)O)C(=O)N[C@@H](CCCCN)C(=O)N[C@H](C(=O)N[C@@H](Cc1c[nH]cn1)C(=O)N[C@@H](CCC(N)=O)C(=O)N[C@@H](CCC(N)=O)C(=O)N[C@@H](CC(=O)O)C(=O)N[C@@H](Cc1ccccc1)C(=O)N[C@H](C(=O)N[C@@H](CC(N)=O)C(=O)N[C@@H](CCCCNC(=O)CCCCCCCCCCCCCCC(=O)O)C(=O)N[C@@H](CC(C)C)C(=O)N[C@@H](CC(C)C)C(=O)N[C@@H](C)C(=O)N[C@@H](CCC(N)=O)C(=O)N[C@@H](CCCCN)C(N)=O)C(C)C)[C@@H](C)CC [AT314, [hGIP(3-30)NH2[W25K]-C16diacid/25]] (H-EGTFISDYSIAMDKIHQQDFVNK(C16 diacid)LLAQK-NH2; N-terminus assumed)	28.4	62	–
CC[C@H](C)[C@H](NC(=O)[C@H](CO)NC(=O)[C@H](Cc1ccc(O)cc1)NC(=O)[C@H](CC(=O)O)NC(=O)[C@H](CO)NC(=O)[C@@H](NC(=O)[C@H](Cc1ccccc1)NC(=O)[C@@H](N)[C@@H](C)O)[C@@H](C)CC)C(=O)N[C@@H](C)C(=O)N[C@@H](CCSC)C(=O)N[C@@H](CC(=O)O)C(=O)N[C@@H](CCCCN)C(=O)N[C@H](C(=O)N[C@@H](Cc1c[nH]cn1)C(=O)N[C@@H](CCC(N)=O)C(=O)N[C@@H](CCC(N)=O)C(=O)N[C@@H](CC(=O)O)C(=O)N[C@@H](Cc1ccccc1)C(=O)N[C@H](C(=O)N[C@@H](CC(N)=O)C(=O)N[C@@H](Cc1c[nH]c2ccccc12)C(=O)N[C@@H](CC(C)C)C(=O)N[C@@H](CC(C)C)C(=O)N[C@@H](C)C(=O)N[C@@H](CCC(N)=O)C(=O)N[C@@H](CCCCNC(=O)CCCCCCCCCCCCCCC(=O)O)C(N)=O)C(C)C)[C@@H](C)CC [AT372, [hGIP(5-30)NH2[Q30K]-C16diacid/30]]	6	–	–
CCCCCCCCCCCC(=O)NCCCC[C@H](NC(=O)[C@H](CCC(N)=O)NC(=O)[C@H](C)NC(=O)[C@H](CC(C)C)NC(=O)[C@H](CC(C)C)NC(=O)[C@H](Cc1c[nH]c2ccccc12)NC(=O)[C@H](CC(N)=O)NC(=O)[C@@H](NC(=O)[C@H](Cc1ccccc1)NC(=O)[C@H](CC(=O)O)NC(=O)[C@H](CCC(N)=O)NC(=O)[C@H](CCC(N)=O)NC(=O)[C@H](Cc1c[nH]cn1)NC(=O)[C@@H](NC(=O)[C@H](CCCCN)NC(=O)[C@H](CC(=O)O)NC(=O)[C@H](CCSC)NC(=O)[C@H](C)NC(=O)[C@@H](NC(=O)[C@H](CO)NC(=O)[C@H](Cc1ccc(O)cc1)NC(=O)[C@H](CC(=O)O)NC(=O)[C@H](CO)NC(=O)[C@@H](NC(=O)[C@H](Cc1ccccc1)NC(=O)[C@@H](N)[C@@H](C)O)[C@@H](C)CC)[C@@H](C)CC)[C@@H](C)CC)C(C)C)C(N)=O [AT120, [hGIP(5-30)NH2—C12/30]]	0	–	–
CCCCCCCCCCCCCC(=O)NCCCC[C@H](NC(=O)[C@H](CCC(N)=O)NC(=O)[C@H](C)NC(=O)[C@H](CC(C)C)NC(=O)[C@H](CC(C)C)NC(=O)[C@H](Cc1c[nH]c2ccccc12)NC(=O)[C@H](CC(N)=O)NC(=O)[C@@H](NC(=O)[C@H](Cc1ccccc1)NC(=O)[C@H](CC(=O)O)NC(=O)[C@H](CCC(N)=O)NC(=O)[C@H](CCC(N)=O)NC(=O)[C@H](Cc1c[nH]cn1)NC(=O)[C@@H](NC(=O)[C@H](CCCCN)NC(=O)[C@H](CC(=O)O)NC(=O)[C@H](CCSC)NC(=O)[C@H](C)NC(=O)[C@@H](NC(=O)[C@H](CO)NC(=O)[C@H](Cc1ccc(O)cc1)NC(=O)[C@H](CC(=O)O)NC(=O)[C@H](CO)NC(=O)[C@@H](NC(=O)[C@H](Cc1ccccc1)NC(=O)[C@@H](N)[C@@H](C)O)[C@@H](C)CC)[C@@H](C)CC)[C@@H](C)CC)C(C)C)C(N)=O [AT123, [hGIP(5-30)NH2—C14/30]]	64	–	–
CC[C@H](C)[C@H](NC(=O)[C@H](CCCCNC(=O)CCCCCCCCCCCCCCC(=O)O)NC(=O)[C@H](Cc1ccc(O)cc1)NC(=O)[C@H](CC(=O)O)NC(=O)[C@H](CO)NC(=O)[C@@H](NC(=O)[C@H](Cc1ccccc1)NC(=O)[C@@H](NC(=O)CNC(=O)[C@@H](N)CCC(=O)O)[C@@H](C)O)[C@@H](C)CC)C(=O)N[C@@H](C)C(=O)N[C@@H](CCSC)C(=O)N[C@@H](CC(=O)O)C(=O)N[C@@H](CCCCN)C(=O)N[C@H](C(=O)N[C@@H](Cc1c[nH]cn1)C(=O)N[C@@H](CCC(N)=O)C(=O)N[C@@H](CCC(N)=O)C(=O)N[C@@H](CC(=O)O)C(=O)N[C@@H](Cc1ccccc1)C(=O)N[C@H](C(=O)N[C@@H](CC(N)=O)C(=O)N[C@@H](Cc1c[nH]c2ccccc12)C(=O)N[C@@H](CC(C)C)C(=O)N[C@@H](CC(C)C)C(=O)N[C@@H](C)C(=O)N[C@@H](CCC(N)=O)C(=O)N[C@@H](CCCCN)C(N)=O)C(C)C)[C@@H](C)CC [AT302, [hGIP(3-30)NH2[S11K]-C16diacid/11]] (H-EGTFISDYK(C16 diacid)IAMDKIHQQDFVNWLLAQK-NH2; N-terminus assumed)	–	–	no ag.
CC[C@H](C)[C@H](NC(=O)[C@H](CO)NC(=O)[C@H](Cc1ccc(O)cc1)NC(=O)[C@H](CC(=O)O)NC(=O)[C@H](CO)NC(=O)[C@@H](NC(=O)[C@H](Cc1ccccc1)NC(=O)[C@@H](NC(=O)CNC(=O)[C@@H](N)CCC(=O)O)[C@@H](C)O)[C@@H](C)CC)C(=O)N[C@@H](C)C(=O)N[C@@H](CCSC)C(=O)N[C@@H](CC(=O)O)C(=O)N[C@@H](CCCCN)C(=O)N[C@H](C(=O)N[C@@H](Cc1c[nH]cn1)C(=O)N[C@@H](CCC(N)=O)C(=O)N[C@@H](CCC(N)=O)C(=O)N[C@@H](CC(=O)O)C(=O)N[C@@H](Cc1ccccc1)C(=O)N[C@H](C(=O)N[C@@H](CCCCNC(=O)CCCCCCCCCCCCCCC(=O)O)C(=O)N[C@@H](Cc1c[nH]c2ccccc12)C(=O)N[C@@H](CC(C)C)C(=O)N[C@@H](CC(C)C)C(=O)N[C@@H](C)C(=O)N[C@@H](CCC(N)=O)C(=O)N[C@@H](CCCCN)C(N)=O)C(C)C)[C@@H](C)CC [AT313, [hGIP(3-30)NH2[N24K]-C16diacid/24]] (H-EGTFISDYSIAMDKIHQQDFVK(C16 diacid)WLLAQK-NH2; N-terminus assumed)	7.2	–	–
